Data from paper PMC5889090 (Journal of medicinal chemistry, 2017).
Where two headings read alike, the source gives them in different places.

Legend:
hERG ion channel = hERG ion channel (Homo sapiens, UniProt Q12809); test: cell-based
[1] = tested on: zebrafish neuromast hair cells; test: Zebrafish neuromast hair cell protection assay; conditions: for protective activity (in words) / EC50: 200 μM neomycin; for eudismic ratio (ER): HC50 of the less active versus the more active enantiomer
Air oxidation stability = type: physicochemical; conditions: oxidation to inactive, highly fluorescent byproduct
CYP = CYP stability / inhibition
[2] = Early / in vitro ADME profiling
[3] = In vitro toxicity against HepG2 cell line; conditions: human
Aqueous solubility = type: physicochemical
E. coli ATCC25922 = test: Interference with neomycin MIC/MBC; type: cell-based
[4] = Preliminary i.v. toxicity and plasma half-life in rats; type: in vivo, rat
Sprague-Dawley rats = test: Rat ABR assay, kanamycin-induced hearing loss; conditions: kanamycin 500 mg/kg/day s.c. 14 days + compound 25 mg/kg/day i.p.
[5] = tested on: five strains of P. aeruginosa; test: Interference with aminoglycoside MIC; type: cell-based
M. tuberculosis = test: Interference with amikacin MIC; type: cell-based
[6] = read-out: HC50, Tables 7, 8 and text, 50% hair cell protection

hERG ion channel, sequence (Q12809 whole entry): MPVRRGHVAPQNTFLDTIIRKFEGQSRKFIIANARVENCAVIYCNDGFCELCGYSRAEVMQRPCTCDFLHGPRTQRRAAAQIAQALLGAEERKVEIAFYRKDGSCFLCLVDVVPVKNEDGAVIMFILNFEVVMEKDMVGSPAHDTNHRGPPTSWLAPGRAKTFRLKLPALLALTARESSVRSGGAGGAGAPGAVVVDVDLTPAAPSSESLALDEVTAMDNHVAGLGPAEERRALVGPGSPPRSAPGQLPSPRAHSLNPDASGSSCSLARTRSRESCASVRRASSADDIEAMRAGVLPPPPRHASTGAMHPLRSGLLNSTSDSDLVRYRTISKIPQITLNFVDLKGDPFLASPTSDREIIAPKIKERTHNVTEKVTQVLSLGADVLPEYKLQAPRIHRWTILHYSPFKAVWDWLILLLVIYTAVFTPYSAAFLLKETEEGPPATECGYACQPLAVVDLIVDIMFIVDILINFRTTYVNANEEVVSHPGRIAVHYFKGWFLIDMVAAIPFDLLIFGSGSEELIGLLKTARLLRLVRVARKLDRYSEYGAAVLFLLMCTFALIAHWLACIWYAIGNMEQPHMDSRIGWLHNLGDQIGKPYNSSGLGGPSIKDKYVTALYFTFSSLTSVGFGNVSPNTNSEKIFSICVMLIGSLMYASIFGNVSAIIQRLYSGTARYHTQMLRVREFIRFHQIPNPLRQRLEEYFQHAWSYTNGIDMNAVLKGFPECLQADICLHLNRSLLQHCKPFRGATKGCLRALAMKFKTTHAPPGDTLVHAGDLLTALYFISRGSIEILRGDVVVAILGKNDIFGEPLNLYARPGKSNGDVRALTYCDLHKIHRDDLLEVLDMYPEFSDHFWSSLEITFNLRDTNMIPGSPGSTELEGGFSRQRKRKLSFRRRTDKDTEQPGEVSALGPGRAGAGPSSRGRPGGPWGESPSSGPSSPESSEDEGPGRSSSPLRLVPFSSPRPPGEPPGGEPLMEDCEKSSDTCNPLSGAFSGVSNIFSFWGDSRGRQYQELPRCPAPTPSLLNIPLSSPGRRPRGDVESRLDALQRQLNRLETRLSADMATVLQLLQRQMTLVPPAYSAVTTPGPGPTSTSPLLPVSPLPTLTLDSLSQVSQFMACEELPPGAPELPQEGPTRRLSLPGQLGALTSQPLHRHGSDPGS

With `CC(C)C[N+]1(C)CCc2c(sc(NC(=O)Nc3ccc(Cl)cc3)c2C(N)=O)C1` (stereo not drawn) [compound 71] the IC50 (hERG ion channel) was 9750 nM.
For `CCN1CCc2c(sc(NC(=O)NCc3cccc(Cl)c3)c2C(N)=O)C1.Cl` [compound 11], the “protective activity (in words)” value [1] was “inactive”.
With `CCN1CCc2c(ccc(NC(=O)Nc3ccc(Cl)cc3)c2C(N)=O)C1` [compound 38] the “protective activity (in words)” value [1] was “no potency”.
With `CCN1CCc2c(sc(NC(=O)Nc3ccc(Cl)cc3)c2C(=O)c2nc(C)no2)C1.Cl` [compound 21] the “protective activity (in words)” value [1] was “inactive”.
With `CCN1CCc2c(sc(NC(=O)Nc3ccc(Cl)cc3)c2C(=O)OC)C1.Cl` [compound 17] the “protective activity (in words)” value [1] was “greatly reduces the activity”.
With `CCN1CCc2c(sc(NC=O)c2C(N)=O)C1.Cl` [compound 29] the “protective activity (in words)” value [1] was “no protective activity”.
In the case of `CCN1CCc2c(sc(NC(=O)Nc3ccc(Cl)cc3)c2C(=O)N2CCOCC2)C1.Cl` [compound 20], the “protective activity (in words)” value [1] is reported as “greatly reduces the activity”.
In the case of `CCN1CCc2c(sc(NC(=O)Nc3ccccc3)c2C(N)=O)C1.Cl` [compound 14], the “protective activity (in words)” value [1] is reported as “inactive”.
With `CCN1CCc2c(sc(NC(=O)Nc3cscc3C(=O)OC)c2C(N)=O)C1` [compound 15] the “protective activity (in words)” value [1] was “inactive”.
With `Cl.NC(=O)c1c(NC(=O)Nc2ccc(Cl)cc2)sc2c1C[C@H]1CC[C@@H]2N1` [compound 95] the “protective activity (in words)” value [1] was “significantly reduced activity” and the “eudismic ratio (ER)” value [1] was 14.7.
`NC(=O)c1c(NC(=O)Nc2ccc(Cl)cc2)sc2c1[C@@H]1CC[C@H](C2)N1` [compound 99] gave an EC50 ([1]; Danio rerio, read-out: HC50, text) of 33 nM.
For `CCN1CCc2c(sc(NC(=O)Nc3ccc(Cl)cc3)c2C(=O)NC)C1.Cl` [compound 18], the “protective activity (in words)” value [1] was “greatly reduces the activity”.
For “(+/−)-2-[3-(4-Chlorophenyl)ureido]-9-methyl-5,6,7,8-tetrahydro-4H-5,8-epiminocyclohepta[b]thiophene-3-carboxamide [compound 88]”, the EC50 [1, 6] was 360 nM.
With `NC(=O)c1c(NC(=O)Nc2ccc(Cl)cc2)sc2c1CCN(CC1CC1)C2` [compound 53] the IC50 (hERG ion channel) was 2670 nM.
Work on `C[N+]1(CC2CCCCC2)CCc2c(sc(NC(=O)Nc3ccc(Cl)cc3)c2C(N)=O)C1` (stereo not drawn) [compound 76] yielded an IC50 (hERG ion channel) greater than 30000 nM.
For `CCN1CCc2c(sc(NC(=O)[C@@H]3CCCN3)c2C(N)=O)C1` [compound 30], the “protective activity (in words)” value [1] was “no protective activity”.
In the case of `CCN1CCc2c(sc(NC(=O)CN3CCCCC3)c2C(N)=O)C1` [compound 27], the “protective activity (in words)” value [1] is reported as “no protective activity”.
In the case of `CCN1CCc2c(sc(NC(=O)NCCN3CCOCC3)c2C(N)=O)C1` [compound 13], the “protective activity (in words)” value [1] is reported as “inactive”.
In the case of “2-amino-4,5,6,7-tetrahydrothieno[2,3-c]pyridine-3-carboxamide [compound 28]”, the “protective activity (in words)” value [1] is reported as “inactive”.
With `CCN1CCc2c(sc(NC(=O)c3ccccc3)c2C(N)=O)C1.Cl` [compound 32] the “protective activity (in words)” value [1] was “no protective activity”.
With `CCN1CCc2c(sc(NC(=O)C3(C(=O)Nc4ccc(Cl)cc4)CC3)c2C(N)=O)C1` [compound 31] the “protective activity (in words)” value [1] was “lack of potency”.
With `CCN1CCc2c(sc(NC(=O)NCC3CCCO3)c2C(N)=O)C1` (stereo not drawn) [compound 12] the “protective activity (in words)” value [1] was “inactive”.
For `CC1(C)Cc2c(sc(NC(=O)Nc3ccc(Cl)cc3)c2C(N)=O)C(C)(C)N1.Cl` [compound 87], the air oxidation (Air oxidation stability) was “resistant to the oxidation pathway”, the “CYP stability or inhibition” value (CYP) was “no issues” and the metabolic stability ([2]; in vitro ADME profiling) was “excellent”. It also gave an IC50 [3] greater than 300000 nM.
For `CN1[C@@H]2CC[C@H]1c1sc(NC(=O)Nc3ccc(Cl)cc3)c(C(N)=O)c1C2.Cl` [compound 92], the “protective activity (in words)” value [1] was “significantly reduced activity” and the “eudismic ratio (ER)” value [1] was 26.7.
In the case of `CCN1CCc2c(sc(NC(=O)Nc3ccc(Cl)cc3)c2C(N)=O)C1.Cl` [compound 1, 2-[3-(4-Chlorophenyl)ureido]-6-ethyl-4,5,6,7-tetrahydrothieno[2,3-c]pyridine-3-carboxamide], the “aqueous solubility (in words)” value (Aqueous solubility) is reported as “adequate”, the “interference with neomycin minimal bactericidal concentration (MBC)” value (E. coli ATCC25922) is reported as “no interference” and the “interference with neomycin minimal inhibitory concentration (MIC)” value (E. coli ATCC25922) is reported as “no interference”. For the same molecule, the half-life ([4]; rat, plasma, iv, 25 mg/kg) was 1.7 h, the toxicity i.v. ([4]; rats, i.v., doses up to 25 mg/kg) was “non-toxic” and the air oxidation (Air oxidation stability) was “gradually undergo partial air oxidation”. For the same molecule, the “CYP stability or inhibition” value (CYP) was “no issues”, the “clearance profile (in words)” value ([2]; early ADME characterization) was “acceptable” and the “membrane permeability (in words)” value ([2]; early ADME characterization) was “adequate”. The “plasma protein binding (in words)” value ([2]; early ADME characterization) was “reasonable”, the IC50 [3] was greater than 300000 nM and the “protection from kanamycin-induced hearing loss (ABR)” value (Sprague-Dawley rats; 8 and 16 kHz) was “completely prevented”. The “protection from kanamycin-induced hearing loss (ABR)” value (Sprague-Dawley rats; 32 kHz) was “mostly resolved”.
With “(+)-2-[3-(4-Chlorophenyl)ureido]-9-methyl-5,6,7,8-tetrahydro-4H-5,8-epiminocyclohepta[b]thiophene-3-carboxamide [compound 90]” the “interference with neomycin minimal inhibitory concentration (MIC)” value (E. coli ATCC25922) was “no interference”, the “interference in MIC for tobramycin, amikacin, kanamycin and neomycin” value [5] was “no interference” and the “interference in amikacin MIC” value (M. tuberculosis) was “no interference”. For the same molecule, the EC50 [1, 6] was 120 nM.
For `CCN1CCc2c(sc(NC(=O)Nc3ccc(Cl)cc3)c2C(=O)O)C1.O=C(O)C(F)(F)F` [compound 16], the “protective activity (in words)” value [1] was “greatly reduces the activity”.
Work on `NC(=O)c1c(NC(=O)Nc2ccc(Cl)cc2)sc2c1CCN(CC1CCC1)C2` [compound 54] yielded an IC50 (hERG ion channel) of 730 nM.
In the case of `CCN1CCc2c(sc(NC(=O)Nc3ccc(Cl)cc3)c2C#N)C1.Cl` [compound 19], the “protective activity (in words)” value [1] is reported as “greatly reduces the activity”.
In the case of “(−)-2-[3-(4-Chlorophenyl)ureido]-9-methyl-5,6,7,8-tetrahydro-4H-5,8-epiminocyclohepta[b]thiophene-3-carboxamide [compound 89]”, the “protective activity (in words)” value [1] is reported as “significantly reduced activity” and the EC50 [1, 6] is reported as 2250 nM.
Molecule `CC(C)(C)OC(=O)CCCN1CCc2c(sc(NC(=O)Nc3ccc(Cl)cc3)c2C(N)=O)C1` [compound 62] has an IC50 (hERG ion channel) of 3840 nM.
In the case of `CC(C)(C)OC(=O)N1CCc2c(sc(NC(=O)Nc3ccc(Cl)cc3)c2C(N)=O)C1` [compound 59], the “protective activity (in words)” value [1] is reported as “completely suppressed”.
For `CC(C)(C)OC(=O)CN1CCc2c(sc(NC(=O)Nc3ccc(Cl)cc3)c2C(N)=O)C1` [compound 60], the “protective activity (in words)” value [1] was “completely suppressed”.
In the case of `Cl.NC(=O)c1c(NC(=O)Nc2ccc(Cl)cc2)sc2c1[C@H]1CC[C@@H](C2)N1` [compound 98], the “protective activity (in words)” value [1] is reported as “significantly reduced activity”.
With `CCN1CCc2c(sc(NC(=O)Nc3ccc(Cl)cc3)c2C(=O)c2nnco2)C1.Cl` [compound 22] the “protective activity (in words)” value [1] was “inactive”.
For `CCN1CCc2c(sc(NC(=O)C3(c4ccc(Cl)cc4)CC3)c2C(N)=O)C1.Cl` [compound 33], the “protective activity (in words)” value [1] was “no protective activity”.
